Experimental data: ChEMBL document CHEMBL4507310, “Data for DCP probe A-1211212” (2021); call rule not given here

Key:
[1] = tested on: Proto-oncogene tyrosine-protein kinase receptor Ret (Homo sapiens), P07949 [M918T]; details: Compound concentration 1000.0 nM
[2] = target: Serine/threonine-protein kinase SBK1 (Homo sapiens) (UniProt Q52WX2); details: Compound concentration 1000.0 nM
[3] = target: Tyrosine-protein kinase Fgr (Homo sapiens) (UniProt P09769); details: Compound concentration 1000.0 nM
Tyrosine-protein kinase Fgr (Homo sapiens), sequence (P09769 2-529 limits assumed): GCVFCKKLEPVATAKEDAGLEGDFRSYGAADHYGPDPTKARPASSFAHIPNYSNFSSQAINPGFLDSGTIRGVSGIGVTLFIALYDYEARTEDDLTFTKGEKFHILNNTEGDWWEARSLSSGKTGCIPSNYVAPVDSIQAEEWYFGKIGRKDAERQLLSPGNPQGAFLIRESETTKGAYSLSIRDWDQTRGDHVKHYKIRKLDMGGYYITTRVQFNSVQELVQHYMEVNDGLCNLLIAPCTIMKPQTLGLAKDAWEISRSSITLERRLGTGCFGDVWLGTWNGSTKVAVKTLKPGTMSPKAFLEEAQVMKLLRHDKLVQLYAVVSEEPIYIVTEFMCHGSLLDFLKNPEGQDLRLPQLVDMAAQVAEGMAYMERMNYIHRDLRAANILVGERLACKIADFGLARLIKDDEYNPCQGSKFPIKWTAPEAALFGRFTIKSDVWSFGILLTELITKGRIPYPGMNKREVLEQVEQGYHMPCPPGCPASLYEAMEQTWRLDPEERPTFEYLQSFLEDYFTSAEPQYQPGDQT

[4] = target: Serine/threonine-protein kinase RIO2 (Homo sapiens) (UniProt Q9BVS4); details: Compound concentration 1000.0 nM
[5] = target: Casein kinase I isoform epsilon (Homo sapiens) (UniProt P49674); details: Compound concentration 1000.0 nM
[6] = target: Serine/threonine-protein kinase 35 (Homo sapiens) (UniProt Q8TDR2); details: Compound concentration 1000.0 nM
[7] = target: Tyrosine-protein kinase Srms (Homo sapiens) (UniProt Q9H3Y6); details: Compound concentration 1000.0 nM
[8] = target: Phosphatidylinositol 4-phosphate 5-kinase type-1 alpha (Homo sapiens) (UniProt Q99755); details: Compound concentration 1000.0 nM
[9] = target: Mitogen-activated protein kinase 6 (Homo sapiens) (UniProt Q16659); details: Compound concentration 1000.0 nM
[10] = target: T1, Muscarinic acetylcholine receptor M4 (Homo sapiens) (UniProt P08173); experiment: M4 (h) Eurofins-Cerep binding assay; design: ligand concentration 0.2 nM; details: filed as antagonist, Compound concentration 10.0 uM
T1 sequence (whole entry): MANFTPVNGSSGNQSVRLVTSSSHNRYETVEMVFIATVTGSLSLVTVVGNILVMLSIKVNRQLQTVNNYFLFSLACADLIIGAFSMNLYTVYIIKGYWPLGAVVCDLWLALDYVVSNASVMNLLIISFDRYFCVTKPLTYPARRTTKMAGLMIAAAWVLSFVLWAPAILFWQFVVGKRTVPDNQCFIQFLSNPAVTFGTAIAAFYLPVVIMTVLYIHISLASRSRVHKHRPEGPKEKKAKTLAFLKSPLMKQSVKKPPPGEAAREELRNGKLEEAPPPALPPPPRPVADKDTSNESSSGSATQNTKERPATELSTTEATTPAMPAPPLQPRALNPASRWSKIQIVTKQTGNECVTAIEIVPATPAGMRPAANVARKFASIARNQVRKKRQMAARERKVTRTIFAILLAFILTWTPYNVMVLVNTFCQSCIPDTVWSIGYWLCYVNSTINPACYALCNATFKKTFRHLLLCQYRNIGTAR

[11] = target: Dual specificity protein kinase CLK3 (Homo sapiens) (UniProt P49761); details: Compound concentration 1000.0 nM
[12] = target: Serine/threonine-protein kinase PRP4 homolog (Homo sapiens) (UniProt Q13523); details: Compound concentration 1000.0 nM
Serine/threonine-protein kinase PRP4 homolog (Homo sapiens), sequence (Q13523 whole entry): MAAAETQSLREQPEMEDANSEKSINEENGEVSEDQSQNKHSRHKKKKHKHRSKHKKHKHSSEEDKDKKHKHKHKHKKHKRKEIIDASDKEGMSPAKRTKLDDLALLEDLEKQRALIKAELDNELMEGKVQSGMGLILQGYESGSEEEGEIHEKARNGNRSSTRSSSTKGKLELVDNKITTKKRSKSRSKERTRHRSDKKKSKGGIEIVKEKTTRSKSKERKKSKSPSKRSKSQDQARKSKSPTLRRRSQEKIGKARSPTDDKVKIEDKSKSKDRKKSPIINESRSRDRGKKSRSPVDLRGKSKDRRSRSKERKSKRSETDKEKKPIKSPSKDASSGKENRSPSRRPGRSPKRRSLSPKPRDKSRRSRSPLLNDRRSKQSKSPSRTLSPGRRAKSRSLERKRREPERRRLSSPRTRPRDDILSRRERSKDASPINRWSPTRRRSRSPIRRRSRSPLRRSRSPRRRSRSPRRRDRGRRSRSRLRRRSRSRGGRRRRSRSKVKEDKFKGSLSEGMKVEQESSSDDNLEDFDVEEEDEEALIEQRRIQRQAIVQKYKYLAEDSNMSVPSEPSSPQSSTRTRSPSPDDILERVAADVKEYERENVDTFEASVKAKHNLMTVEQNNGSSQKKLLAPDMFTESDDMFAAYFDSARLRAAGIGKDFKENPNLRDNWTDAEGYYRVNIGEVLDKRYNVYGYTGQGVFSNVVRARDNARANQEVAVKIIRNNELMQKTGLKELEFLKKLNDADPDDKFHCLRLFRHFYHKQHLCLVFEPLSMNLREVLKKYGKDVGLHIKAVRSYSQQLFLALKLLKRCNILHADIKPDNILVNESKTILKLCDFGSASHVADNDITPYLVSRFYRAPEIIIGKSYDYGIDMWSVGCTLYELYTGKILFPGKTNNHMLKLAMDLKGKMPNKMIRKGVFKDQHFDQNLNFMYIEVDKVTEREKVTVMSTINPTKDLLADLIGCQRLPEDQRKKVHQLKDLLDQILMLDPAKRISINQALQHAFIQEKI

[13] = target: Vasoactive intestinal polypeptide receptor 1 (Homo sapiens) (UniProt P32241); experiment: VPAC1 (VIP1) (h) Eurofins-Cerep binding assay; design: ligand concentration 0.04 nM; details: filed as agonist, Compound concentration 10.0 uM
[14] = target: L-type Ca2+ channel (dihydropyridine site) (Rattus norvegicus, UniProt P22002+P27732+Q02485); experiment: Ca2+ channel (L, dihydropyridine site) Eurofins-Cerep binding assay; type: protein assay; design: incubation time 90 min, incubation temperature RT, ligand concentration 0.1 nM; details: rat cerebral cortex, probe [3H]nitrendipine (0.1 nM), compound concentration 10 uM, read-out: % Inhibition of Control Specific Binding (Mean n=2)
[15] = tested on: NCI-H146; experiment: CellTiter-Glo Luminescent Cell Viability Assay (BCL-XL dependent cell line H146); type: functional, cell-based; details: Homo sapiens
[16] = tested on: Proto-oncogene tyrosine-protein kinase receptor Ret (Homo sapiens), P07949 [V804L]; details: Compound concentration 1000.0 nM
[17] = target: GABA-A receptor; anion channel (Rattus norvegicus) (UniProt O09028+P15431+P18506+P18508+P19969+P20236+P23574+P23576+P28471+P28473+P30191+P62813+P63079+P63138+Q91ZM7+Q9ES14); details: Compound concentration 10.0 uM
[18] = target: Myotonin-protein kinase (Homo sapiens) (UniProt Q09013); details: Compound concentration 1000.0 nM
[19] = target: Rhodopsin kinase GRK1 (Homo sapiens) (UniProt Q15835); details: Compound concentration 1000.0 nM
Rhodopsin kinase GRK1 (Homo sapiens), sequence (Q15835 whole entry): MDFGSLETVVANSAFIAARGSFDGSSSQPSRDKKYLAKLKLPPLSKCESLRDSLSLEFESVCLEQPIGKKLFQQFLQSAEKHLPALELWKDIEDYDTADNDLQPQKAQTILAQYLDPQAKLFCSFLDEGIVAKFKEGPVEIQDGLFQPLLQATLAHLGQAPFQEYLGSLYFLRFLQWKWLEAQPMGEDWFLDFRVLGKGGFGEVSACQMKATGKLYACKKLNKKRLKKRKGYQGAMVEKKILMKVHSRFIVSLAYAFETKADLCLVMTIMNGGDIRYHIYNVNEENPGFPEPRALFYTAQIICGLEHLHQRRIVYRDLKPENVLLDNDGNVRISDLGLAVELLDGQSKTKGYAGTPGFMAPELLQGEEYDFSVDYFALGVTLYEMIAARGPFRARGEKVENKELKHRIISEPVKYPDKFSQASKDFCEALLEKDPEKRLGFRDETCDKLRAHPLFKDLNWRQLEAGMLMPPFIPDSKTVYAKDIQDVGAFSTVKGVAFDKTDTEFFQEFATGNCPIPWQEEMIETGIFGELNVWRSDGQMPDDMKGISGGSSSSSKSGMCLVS

[20] = target: Ephrin type-B receptor 3 (Homo sapiens) (UniProt P54753); details: Compound concentration 1000.0 nM
[21] = target: Aurora kinase B (Homo sapiens) (UniProt Q96GD4); details: Compound concentration 1000.0 nM
[22] = target: D(2) dopamine receptor (Homo sapiens) (UniProt P14416); experiment: D2S (h) Eurofins-Cerep binding assay; design: ligand concentration 0.3 nM; details: filed as antagonist, Compound concentration 10.0 uM
D(2) dopamine receptor (Homo sapiens), sequence (P14416 whole entry): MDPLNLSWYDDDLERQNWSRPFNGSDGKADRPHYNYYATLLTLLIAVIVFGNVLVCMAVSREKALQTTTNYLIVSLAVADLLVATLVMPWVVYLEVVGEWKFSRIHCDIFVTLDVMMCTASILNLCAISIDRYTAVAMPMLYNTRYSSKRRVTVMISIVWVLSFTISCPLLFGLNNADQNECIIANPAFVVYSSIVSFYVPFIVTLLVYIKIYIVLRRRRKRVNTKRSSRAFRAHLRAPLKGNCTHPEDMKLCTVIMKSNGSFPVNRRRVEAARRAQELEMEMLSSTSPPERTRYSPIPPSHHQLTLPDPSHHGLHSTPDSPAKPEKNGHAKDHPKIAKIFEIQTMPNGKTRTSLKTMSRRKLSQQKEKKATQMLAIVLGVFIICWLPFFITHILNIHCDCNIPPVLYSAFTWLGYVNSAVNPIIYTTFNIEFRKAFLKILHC

[23] = target: 5-hydroxytryptamine receptor 2A (Homo sapiens) (UniProt P28223); experiment: 5-HT2A (h) Eurofins-Cerep binding assay; design: ligand concentration 0.5 nM; details: filed as antagonist, Compound concentration 10.0 uM
[24] = target: T2, Alpha-2A adrenergic receptor (Homo sapiens) (UniProt P08913); details: Compound concentration 10.0 uM
T2 sequence (whole entry): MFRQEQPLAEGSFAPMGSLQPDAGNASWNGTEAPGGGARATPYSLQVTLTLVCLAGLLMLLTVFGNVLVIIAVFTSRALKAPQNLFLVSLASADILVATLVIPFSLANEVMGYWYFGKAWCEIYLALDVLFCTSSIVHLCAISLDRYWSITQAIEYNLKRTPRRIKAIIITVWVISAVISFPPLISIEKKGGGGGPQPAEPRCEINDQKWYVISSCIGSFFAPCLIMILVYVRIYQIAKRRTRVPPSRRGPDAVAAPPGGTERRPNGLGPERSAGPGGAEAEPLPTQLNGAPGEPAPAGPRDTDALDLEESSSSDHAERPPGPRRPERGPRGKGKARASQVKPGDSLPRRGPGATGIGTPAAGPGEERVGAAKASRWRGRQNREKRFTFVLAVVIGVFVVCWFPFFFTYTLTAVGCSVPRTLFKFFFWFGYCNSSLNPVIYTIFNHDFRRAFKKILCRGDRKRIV

[25] = tested on: Tyrosine-protein kinase ABL1 (Homo sapiens), P00519 [F317I]; details: Compound concentration 1000.0 nM
Tyrosine-protein kinase ABL1 (Homo sapiens), P00519 [F317I], sequence (P00519 whole entry F317I): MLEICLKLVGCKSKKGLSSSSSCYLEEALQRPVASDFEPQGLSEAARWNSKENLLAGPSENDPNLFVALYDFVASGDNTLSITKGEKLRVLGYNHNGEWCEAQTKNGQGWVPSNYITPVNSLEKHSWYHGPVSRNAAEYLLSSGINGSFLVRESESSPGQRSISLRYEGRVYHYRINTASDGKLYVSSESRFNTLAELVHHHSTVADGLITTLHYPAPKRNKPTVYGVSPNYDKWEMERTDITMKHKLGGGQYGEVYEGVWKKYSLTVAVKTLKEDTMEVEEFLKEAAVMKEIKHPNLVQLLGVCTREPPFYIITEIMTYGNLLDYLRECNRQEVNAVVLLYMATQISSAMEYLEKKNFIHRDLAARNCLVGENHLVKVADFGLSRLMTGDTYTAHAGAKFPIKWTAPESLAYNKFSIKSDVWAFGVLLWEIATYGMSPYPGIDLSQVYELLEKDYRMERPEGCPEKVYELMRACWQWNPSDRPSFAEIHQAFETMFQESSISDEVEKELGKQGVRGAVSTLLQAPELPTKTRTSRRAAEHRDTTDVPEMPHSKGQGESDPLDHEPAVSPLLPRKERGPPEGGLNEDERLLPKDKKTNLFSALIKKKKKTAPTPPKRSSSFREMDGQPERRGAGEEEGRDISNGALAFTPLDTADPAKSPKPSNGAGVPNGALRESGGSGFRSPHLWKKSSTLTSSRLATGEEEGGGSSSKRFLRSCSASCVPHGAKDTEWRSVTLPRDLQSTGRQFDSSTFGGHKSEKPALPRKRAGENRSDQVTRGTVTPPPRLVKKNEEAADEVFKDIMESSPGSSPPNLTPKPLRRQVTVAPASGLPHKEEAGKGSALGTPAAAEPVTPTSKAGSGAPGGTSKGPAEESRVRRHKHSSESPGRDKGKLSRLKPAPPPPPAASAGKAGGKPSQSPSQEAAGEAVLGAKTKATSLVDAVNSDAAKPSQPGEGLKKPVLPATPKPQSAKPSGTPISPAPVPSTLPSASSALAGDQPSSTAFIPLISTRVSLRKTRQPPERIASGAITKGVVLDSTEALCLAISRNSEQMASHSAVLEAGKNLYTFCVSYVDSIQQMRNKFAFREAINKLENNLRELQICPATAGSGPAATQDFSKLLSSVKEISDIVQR

[26] = target: Muscle, skeletal receptor tyrosine-protein kinase (Homo sapiens) (UniProt O15146); details: Compound concentration 1000.0 nM
Muscle, skeletal receptor tyrosine-protein kinase (Homo sapiens), sequence (O15146 whole entry): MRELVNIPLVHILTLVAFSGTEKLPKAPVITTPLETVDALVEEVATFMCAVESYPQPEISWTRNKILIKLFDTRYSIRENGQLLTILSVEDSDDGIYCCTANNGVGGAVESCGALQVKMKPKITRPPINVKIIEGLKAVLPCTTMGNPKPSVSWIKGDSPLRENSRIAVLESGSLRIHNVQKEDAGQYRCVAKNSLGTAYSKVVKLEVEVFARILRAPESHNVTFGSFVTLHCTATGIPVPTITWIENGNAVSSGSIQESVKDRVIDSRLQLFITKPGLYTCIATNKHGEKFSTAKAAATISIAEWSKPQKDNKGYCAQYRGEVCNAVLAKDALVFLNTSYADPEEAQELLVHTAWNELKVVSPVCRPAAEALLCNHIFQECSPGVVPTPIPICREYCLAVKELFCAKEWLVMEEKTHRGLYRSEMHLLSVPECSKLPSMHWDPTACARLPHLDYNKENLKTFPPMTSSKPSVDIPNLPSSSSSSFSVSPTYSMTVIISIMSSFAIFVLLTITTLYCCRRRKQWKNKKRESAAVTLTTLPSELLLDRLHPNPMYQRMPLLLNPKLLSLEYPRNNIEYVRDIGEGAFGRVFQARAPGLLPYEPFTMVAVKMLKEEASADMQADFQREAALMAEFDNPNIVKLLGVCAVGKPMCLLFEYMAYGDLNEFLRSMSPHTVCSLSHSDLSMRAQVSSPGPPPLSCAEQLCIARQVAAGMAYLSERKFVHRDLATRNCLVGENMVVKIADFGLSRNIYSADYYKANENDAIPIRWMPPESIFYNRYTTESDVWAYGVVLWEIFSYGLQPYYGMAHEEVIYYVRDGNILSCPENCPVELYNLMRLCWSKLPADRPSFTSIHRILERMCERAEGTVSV

[27] = target: Serine/threonine-protein kinase 32B (Homo sapiens) (UniProt Q9NY57); details: Compound concentration 1000.0 nM
Serine/threonine-protein kinase 32B (Homo sapiens), sequence (Q9NY57 whole entry): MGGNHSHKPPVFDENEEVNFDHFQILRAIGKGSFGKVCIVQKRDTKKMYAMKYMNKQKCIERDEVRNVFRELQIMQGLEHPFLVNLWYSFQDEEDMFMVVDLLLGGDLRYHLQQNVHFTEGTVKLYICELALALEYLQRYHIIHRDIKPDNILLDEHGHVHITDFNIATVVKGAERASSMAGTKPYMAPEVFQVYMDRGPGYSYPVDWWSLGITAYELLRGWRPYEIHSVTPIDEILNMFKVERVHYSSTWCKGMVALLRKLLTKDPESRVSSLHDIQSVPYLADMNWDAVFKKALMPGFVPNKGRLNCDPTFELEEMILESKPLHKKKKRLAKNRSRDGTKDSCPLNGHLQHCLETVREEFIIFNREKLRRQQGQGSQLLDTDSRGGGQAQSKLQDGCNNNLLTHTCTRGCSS

[28] = target: Serine/threonine-protein kinase PLK1 (Homo sapiens) (UniProt P53350); details: Compound concentration 1000.0 nM
[29] = target: Casein kinase II subunit alpha' (Homo sapiens) (UniProt P19784); details: Compound concentration 1000.0 nM
[30] = target: Discoidin domain-containing receptor 2 (Homo sapiens) (UniProt Q16832); details: Compound concentration 1000.0 nM

SMILES	residual activity [1] [%]	residual activity [2] [%]	residual activity [3] [%]	residual activity [4] [%]	residual activity [5] [%]	residual activity [6] [%]	residual activity [7] [%]	residual activity [8] [%]	residual activity [9] [%]	% Inhibition of Control Specific Binding (Mean n=2) [10] [%]	residual activity [11] [%]	residual activity [12] [%]	% Inhibition of Control Specific Binding (Mean n=2) [13] [%]	inhibition at 90 min, 10 µM [14] [%]	EC50 [15]	residual activity [16] [%]	inhibition [17] [%]	residual activity [18] [%]	residual activity [19] [%]	residual activity [20] [%]	other results
O=C(NS(=O)(=O)c1ccc(NCC2CCOCC2)c([N+](=O)[O-])c1)c1ccc(N2CCN(Cc3ccc(C(F)(F)F)cc3-c3ccc(Cl)cc3)CC2)cc1Oc1cnc2[nH]ccc2c1 [A-1210227]	100	100	100	90	95	95	79	93	100	12.3	100	100	-57.7	7.3	> 5 µM (not active)	100	17.9	100	100	100	residual activity [21]: 100%; % Inhibition of Control Specific Binding (Mean n=2) [22]: 15.2%; % Inhibition of Control Specific Binding (Mean n=2) [23]: -0.1%; inhibition [24]: 9.67%; residual activity [25]: 100%; residual activity [26]: 98%; residual activity [27]: 100%; residual activity [28]: 90%; residual activity [29]: 100%; residual activity [30]: 90%
CO[C@H]1CC[C@H](CNc2ccc(S(=O)(=O)NC(=O)c3ccc(N4CCN(CC5=C(c6ccc(Cl)cc6)CC(C)(C)CC5)CC4)cc3Oc3cnc4[nH]ccc4c3)cc2[N+](=O)[O-])CC1 [A-1211212]	85	100	100	89	88	93	89	86	81	20.6	90	100	-26.6	63.2	> 5 µM (not active)	88	23.6	91	72	94	residual activity [21]: 100%; % Inhibition of Control Specific Binding (Mean n=2) [22]: 10.3%; % Inhibition of Control Specific Binding (Mean n=2) [23]: -5%; inhibition [24]: 12.5%; residual activity [25]: 100%; residual activity [26]: 100%; residual activity [27]: 100%; residual activity [28]: 83%; residual activity [29]: 100%; residual activity [30]: 100%
